Among the data in ChEMBL document CHEMBL1201862, “PubChem BioAssay data set” (2004) are IC50 and EC50 values, retold here.

Active and inactive are the calls of the source.

In experiment [1] the target is T1, Leucine aminopeptidase (Plasmodium falciparum 3D7, UniProt Q8IL11).
T1 sequence (Q8IL11 whole entry): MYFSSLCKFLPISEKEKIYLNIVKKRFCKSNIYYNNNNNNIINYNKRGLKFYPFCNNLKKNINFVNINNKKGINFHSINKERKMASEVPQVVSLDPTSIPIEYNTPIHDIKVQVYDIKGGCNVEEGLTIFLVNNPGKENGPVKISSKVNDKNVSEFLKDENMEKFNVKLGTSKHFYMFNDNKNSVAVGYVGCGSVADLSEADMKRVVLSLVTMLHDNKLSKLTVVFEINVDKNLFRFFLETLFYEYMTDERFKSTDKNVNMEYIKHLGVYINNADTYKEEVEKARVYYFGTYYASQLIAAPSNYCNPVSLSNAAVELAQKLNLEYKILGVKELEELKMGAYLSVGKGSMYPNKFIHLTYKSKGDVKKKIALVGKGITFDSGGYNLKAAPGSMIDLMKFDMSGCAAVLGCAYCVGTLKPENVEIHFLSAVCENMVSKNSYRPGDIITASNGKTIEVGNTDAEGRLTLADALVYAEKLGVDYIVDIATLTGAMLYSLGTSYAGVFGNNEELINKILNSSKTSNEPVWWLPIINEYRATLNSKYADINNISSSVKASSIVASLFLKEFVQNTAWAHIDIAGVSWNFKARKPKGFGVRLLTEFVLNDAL
Nature of the experiment: P. falciparum M17LAP inhibitors, primary screen, biochemical, fluorogenic H-Leu-NHMec substrate, 1536-well (AID 1619). Format: functional.

Experiment [2] addresses T2, Aspartyl aminopeptidase (Plasmodium falciparum 3D7, UniProt Q8I2J3).
T2 sequence (Q8I2J3 whole entry): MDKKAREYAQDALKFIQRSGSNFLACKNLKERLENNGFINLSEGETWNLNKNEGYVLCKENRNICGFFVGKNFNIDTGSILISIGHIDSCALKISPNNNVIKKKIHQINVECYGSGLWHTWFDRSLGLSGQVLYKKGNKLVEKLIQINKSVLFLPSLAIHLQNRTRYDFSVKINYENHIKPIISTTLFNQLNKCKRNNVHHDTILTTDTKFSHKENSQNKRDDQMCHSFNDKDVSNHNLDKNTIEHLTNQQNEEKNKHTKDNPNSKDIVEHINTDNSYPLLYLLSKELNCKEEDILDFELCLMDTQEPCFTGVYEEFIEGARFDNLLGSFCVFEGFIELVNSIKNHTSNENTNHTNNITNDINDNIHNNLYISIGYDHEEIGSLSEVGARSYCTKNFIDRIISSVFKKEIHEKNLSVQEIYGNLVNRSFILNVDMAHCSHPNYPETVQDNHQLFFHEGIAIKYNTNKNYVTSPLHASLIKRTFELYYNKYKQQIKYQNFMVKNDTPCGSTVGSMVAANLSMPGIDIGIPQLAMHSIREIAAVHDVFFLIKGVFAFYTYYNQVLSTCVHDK
Briefly: Counterscreen for inhibitors of M1 and M17 aminopeptidases: QFRET-based biochemical high throughput dose response assay for inhibitors of the Plasmodium falciparum M18 Aspartyl Aminopeptidase (PFM18AAP). [Related PubChem assays: 1619 (Screening assay (M17LAP inhibitors).), 1445 (Screening assay (M1AAP inhibitors).)].

Experiment [3] concerns the target Procathepsin L (Homo sapiens, UniProt P07711). Nature of the experiment: CTSL1 protease inhibition – biochemical, QFRET, 1536-well, counter-screen for M1/M17 aminopeptidase inhibitor project, dose response (AID 2214).
The target in experiment [4] is G-protein coupled receptor 55 (Homo sapiens, UniProt Q9Y2T6). Briefly: selective activators of receptor GPR55 – imaging, U2OS cells, beta-arrestin-GFP redistribution, primary screen (AID 1961). Format: functional.
For experiment [5], the target named is Hexokinase (Trypanosoma brucei, UniProt Q38C41). Briefly: Confirmation assay for inhibitors of Trypanosoma brucei hexokinase 1-Analogue-first series. [Related pubchem assays (depositor defined):AID1430, AID1632, AID2516, AID2560, AID2579, AID2600, AID449725, AID492951]. Format: functional.
Experiment [6] deals with Glucose-6-phosphate 1-dehydrogenase (Homo sapiens, UniProt P11413). Briefly: inhibition of Homo sapiens G6PD, dose series – biochemical, fluorescence, selectivity assay for P. falciparum G6PD inhibitor project, dose response (AID 504792). Format: functional.
Experiment [7] has as its target T3, Polyadenylate-binding protein 1 (Homo sapiens, UniProt P11940). Nature of the experiment: MLLE binding blockers, Cy5 peptide tracer – biochemical, fluorescence polarization, Cy5-PAM2 peptide, secondary, miRNA deadenylation inhibitor project, dose response (AID 602260). The settings on record: read-out: IC50_Mean. The experiment is classed as functional.
For experiment [8], the target named is T3, Polyadenylate-binding protein 1. Nature of the experiment: MLLE domain peptide-binding blockers, IC50 – biochemical, fluorescence polarization, FITC-PAM2 peptide, dose response (AID 602259). Format: functional. The settings on record: read-out: IC50_Mean.
Experiment [9] concerns the target T4, Coagulation factor XII (Homo sapiens, UniProt P00748).
T4 sequence (P00748 whole entry): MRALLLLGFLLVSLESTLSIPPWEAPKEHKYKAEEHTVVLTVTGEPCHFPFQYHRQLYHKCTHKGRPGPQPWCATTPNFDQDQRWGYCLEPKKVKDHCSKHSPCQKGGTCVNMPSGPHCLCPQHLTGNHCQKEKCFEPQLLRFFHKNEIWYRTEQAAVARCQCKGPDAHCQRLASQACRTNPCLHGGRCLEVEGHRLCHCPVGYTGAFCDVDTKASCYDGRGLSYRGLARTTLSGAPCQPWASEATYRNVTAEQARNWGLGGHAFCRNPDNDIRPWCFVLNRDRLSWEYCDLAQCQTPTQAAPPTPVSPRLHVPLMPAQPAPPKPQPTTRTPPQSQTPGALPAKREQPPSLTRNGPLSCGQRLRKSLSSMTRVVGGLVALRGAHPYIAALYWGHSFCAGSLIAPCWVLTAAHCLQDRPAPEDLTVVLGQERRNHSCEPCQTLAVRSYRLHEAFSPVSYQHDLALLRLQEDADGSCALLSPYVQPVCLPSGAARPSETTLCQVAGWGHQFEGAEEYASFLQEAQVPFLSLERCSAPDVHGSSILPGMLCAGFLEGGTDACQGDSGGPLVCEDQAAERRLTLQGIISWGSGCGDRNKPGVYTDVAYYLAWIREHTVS
Nature of the experiment: activated coagulation factor XII inhibitor potency, concentration-effect curve, cell-free (AID 716). The experiment is classed as functional.

T3 sequence (P11940 whole entry, the tested form may be a part): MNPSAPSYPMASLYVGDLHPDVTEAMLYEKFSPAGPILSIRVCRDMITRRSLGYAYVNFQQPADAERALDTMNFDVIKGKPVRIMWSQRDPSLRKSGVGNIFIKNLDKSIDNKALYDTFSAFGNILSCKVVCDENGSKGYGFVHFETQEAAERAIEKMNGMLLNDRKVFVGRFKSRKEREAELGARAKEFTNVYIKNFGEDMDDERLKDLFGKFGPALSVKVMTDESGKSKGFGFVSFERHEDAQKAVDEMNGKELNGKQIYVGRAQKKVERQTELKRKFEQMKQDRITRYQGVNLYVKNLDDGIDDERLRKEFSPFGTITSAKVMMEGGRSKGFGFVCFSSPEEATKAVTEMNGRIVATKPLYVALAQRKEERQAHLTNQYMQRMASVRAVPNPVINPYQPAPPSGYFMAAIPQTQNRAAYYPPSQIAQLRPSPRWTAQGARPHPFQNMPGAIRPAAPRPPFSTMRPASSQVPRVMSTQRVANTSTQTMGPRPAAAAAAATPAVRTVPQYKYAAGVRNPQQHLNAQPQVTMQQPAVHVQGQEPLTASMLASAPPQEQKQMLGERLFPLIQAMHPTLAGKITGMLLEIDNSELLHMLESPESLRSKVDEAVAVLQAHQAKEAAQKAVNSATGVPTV
Sequence of G-protein coupled receptor 55 (Q9Y2T6 whole entry): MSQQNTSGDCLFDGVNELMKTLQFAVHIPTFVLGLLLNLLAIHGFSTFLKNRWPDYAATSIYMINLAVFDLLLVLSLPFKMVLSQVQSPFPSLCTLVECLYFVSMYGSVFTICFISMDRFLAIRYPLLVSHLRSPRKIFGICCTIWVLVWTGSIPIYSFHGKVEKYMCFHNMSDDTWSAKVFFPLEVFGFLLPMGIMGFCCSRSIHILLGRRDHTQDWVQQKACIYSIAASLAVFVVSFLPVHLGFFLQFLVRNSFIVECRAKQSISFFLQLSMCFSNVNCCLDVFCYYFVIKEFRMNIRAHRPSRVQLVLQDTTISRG
Sequence of Hexokinase (Q38C41 whole entry): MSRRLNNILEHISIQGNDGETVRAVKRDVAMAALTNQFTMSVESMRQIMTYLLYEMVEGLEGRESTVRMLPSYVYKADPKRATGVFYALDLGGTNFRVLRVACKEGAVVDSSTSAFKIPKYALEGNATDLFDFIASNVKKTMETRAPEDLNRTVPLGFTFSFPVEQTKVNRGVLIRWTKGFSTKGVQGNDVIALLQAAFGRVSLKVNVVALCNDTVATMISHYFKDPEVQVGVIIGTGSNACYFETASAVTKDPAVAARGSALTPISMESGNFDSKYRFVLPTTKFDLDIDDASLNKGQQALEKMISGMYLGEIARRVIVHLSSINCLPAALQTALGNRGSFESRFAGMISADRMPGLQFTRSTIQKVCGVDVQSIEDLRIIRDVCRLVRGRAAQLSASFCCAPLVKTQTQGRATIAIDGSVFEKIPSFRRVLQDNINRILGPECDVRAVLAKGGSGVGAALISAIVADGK
Sequence of Procathepsin L (P07711 whole entry): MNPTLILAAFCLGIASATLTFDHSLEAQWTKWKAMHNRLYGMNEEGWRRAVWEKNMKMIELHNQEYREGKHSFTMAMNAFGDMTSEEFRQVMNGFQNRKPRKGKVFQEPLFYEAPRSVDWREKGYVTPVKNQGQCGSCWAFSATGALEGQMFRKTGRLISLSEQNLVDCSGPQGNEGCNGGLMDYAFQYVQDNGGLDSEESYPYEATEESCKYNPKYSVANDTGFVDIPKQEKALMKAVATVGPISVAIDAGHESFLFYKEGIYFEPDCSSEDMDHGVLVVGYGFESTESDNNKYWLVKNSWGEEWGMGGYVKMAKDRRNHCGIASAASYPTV
Sequence of Glucose-6-phosphate 1-dehydrogenase (P11413 whole entry): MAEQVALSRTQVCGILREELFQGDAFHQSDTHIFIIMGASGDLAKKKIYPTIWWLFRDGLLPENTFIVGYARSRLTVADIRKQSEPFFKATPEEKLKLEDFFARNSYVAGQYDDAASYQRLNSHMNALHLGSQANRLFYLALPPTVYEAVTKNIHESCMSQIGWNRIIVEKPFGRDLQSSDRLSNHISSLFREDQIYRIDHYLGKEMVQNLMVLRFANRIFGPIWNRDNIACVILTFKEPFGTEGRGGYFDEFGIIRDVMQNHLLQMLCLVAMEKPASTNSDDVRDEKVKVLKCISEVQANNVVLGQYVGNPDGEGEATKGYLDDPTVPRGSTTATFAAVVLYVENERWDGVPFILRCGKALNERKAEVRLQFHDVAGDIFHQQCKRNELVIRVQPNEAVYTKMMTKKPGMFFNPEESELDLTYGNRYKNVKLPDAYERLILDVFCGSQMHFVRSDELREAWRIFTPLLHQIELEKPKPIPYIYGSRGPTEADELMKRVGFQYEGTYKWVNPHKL

Turning to `O=C(CSc1nnc(Nc2ccccc2)s1)NN1C(=O)NC2(CCCCC2)C1=O`, the IC50 in experiment [1] is < 1 µM (active); in [2], > 73.5 µM (not active); in experiment [3], > 59.6 µM (not active). Besides, the EC50 in [4] was 30.3 µM (inactive).

`N#Cc1ccc2c(=O)n(-c3ccccc3)sc2c1`: the IC50 in experiment [5] was 6.66 µM (active); in [6], 7.11 µM (active); in [7] it was > 66 µM (inactive); in [8] it was > 66 µM (inactive).

Turning to `COc1ccc2c(c1)CCc1c(C(=O)NCc3cccnc3)noc1-2`, in [9], the IC50 is 3.76 µM (active).
